For data set [1], the system named is adult unfed cat fleas (Ctenocephalides felis). Nature of the data set: Ctenocephalides felis oral test (CTECFE). The data set is classed as in vivo. The settings on record: 48 h, read-out: mortality in %. The protocol: Ctenocephalides felis—Oral Test (CTECFE)
(§1) Solvent: dimethyl sulfoxide
Approximately 20 adult unfed cat fleas (Ctenocephalides felis) are placed in flea chambers. The blood chamber, sealed with parafilm on the bottom, are filled with cattle blood supplied with compound solution and placed on the gauze covered top of the flea chamber, so that the fleas are able to suck the blood. The blood chamber is heated to 37° C. whereas the flea chamber is kept at room temperature.

For data set [2], the system named is larvae of the Australian sheep blowfly (Lucilia cuprina). Nature of the data set: Lucilia cuprina test (LUCICU). The data set is classed as in vivo. Particulars: Lucilia cuprina, 48 h, read-out: mortality in %. As for the experimental part: Lucilia cuprina—Test (LUCICU)
as §1
10 mg active compound are dissolved in 0.5 ml Dimethylsulfoxid. Serial dilutions are made to obtain the desired rates.
Approximately 20 […] instar larvae of the Australian sheep blowfly (Lucilia cuprina) are transferred into a test tube containing minced horse meat and compound solution of the desired concentration.

The subject of data set [3] is two spotted spidermite (Tetranychus urticae). Nature of the data set: Tetranychus urticae spray test OP-resistant (French bean leaf disks). The data set is classed as in vivo. The protocol:
Tetranychus urticae—Spray Test OP-Resistant
(§2) Solvent: 78.0 parts by weight acetone
(§3) • 1.5 parts by weight dimethylformamide Emulsifier: alkylarylpolyglycol ether
French bean (Phaseolus vulgaris) leaf disks which are heavily infested with all stages of the two spotted spidermite (Tetranychus urticae) are sprayed with a preparation of the active ingredient of the desired concentration.
(§4) After 6 days mortality in % is determined.

Data set [4] concerns fall armyworm larvae (Spodoptera frugiperda). The data set is described as follows: Spodoptera frugiperda spray test (maize leaf sections). It is filed as in vivo.
From the text: Spodoptera frugiperda—Spray Test
as §2, §3
Maize (Zea mays) leaf sections are sprayed with a preparation of the active ingredient of the desired concentration. Once dry, the leaf sections are infested with fall armyworm larvae (Spodoptera frugiperda).

For data set [5], the system named is mustard beetle larvae (Phaedon cochleariae). The data set is described as follows: Phaedon cochleariae spray test (cabbage leaves). Particulars: in Brassica oleracea, 168 h, read-out: mortality in %.
Data set [6] deals with adult house flies (Musca domestica). Nature of the data set: Musca domestica test (MUSCDO). It is filed as in vivo.
From the text: Musca domestica—Test (MUSCDO)
as §1
10 adult house flies (Musca domestica) are transferred into a container, containing a sponge soaked with a mixture of sugar solution and compound solution of the desired concentration.

Data set [7] concerns adult engorged female ticks (Boophilus microplus). The data set is described as follows: Boophilus microplus injection test (BOOPMI Inj). It is filed as in vivo. The settings on record: 20 μg/animal, egg deposition after 7 days. As for the experimental part:
Boophilus microplus—Injectiontest (BOOPMI Inj)
as §1
Five adult engorged female ticks (Boophilus microplus) are injected with 1 μl compound solution into the abdomen. The ticks are transferred into replica plates and incubated in a climate chamber.
(§5) After 7 days egg deposition of fertile eggs is monitored. Eggs where fertility is not visible are stored in a climate chamber till hatching after about 42 days. An efficacy of 100% means all eggs are infertile; 0% means all eggs are fertile.

Data set [8] can be described thus: logP determination by HPLC on reversed-phase column (C18), EEC Directive 79/831 Annex V.A8. The data set is classed as physicochemical. The settings on record: reversed-phase C18, acetonitrile/water with formic acid.
The test system of data set [9] is green peach aphid (Myzus persicae). Nature of the data set: Myzus persicae spray test (Chinese cabbage leaf disks). The data set is classed as in vivo. The settings on record: Myzus persicae, foliar, 144 h, read-out: mortality in %. The protocol: Myzus persicae—Spray Test
as §2, §3
Chinese cabbage (Brassica pekinensis) leaf disks infected with all instars of the green peach aphid (Myzus persicae), are sprayed with a preparation of the active ingredient of the desired concentration.
as §4

Data set [10] relates to mustard beetle larvae (Phaedon cochleariae). Nature of the data set: Phaedon cochleariae spray test (Chinese cabbage leaf disks). It is filed as in vivo. Particulars: foliar, 168 h, read-out: mortality in %. From the text:
Phaedon cochleariae—Spray Test
Solvent: 78.0 parts by weight of acetone
• 1.5 parts by weight of dimethylformamide Emulsifier: alkylarylpolyglycol ether
Chinese cabbage (Brassica pekinensis) leaf disks are sprayed with a preparation of the active ingredient of the desired concentration.

Data set [11] has as its system Tick nymphs (Amblyomma hebraeum). The data set is described as follows: Amblyomma hebraeum test (AMBYHE). It is filed as in vivo. Particulars: Amblyomma hebraeum, 1008 h, read-out: mortality in %. The protocol:
Amblyomma hebraeum—Test (AMBYHE)
as §1
Tick nymphs (Amblyomma hebraeum) are placed in perforated plastic beakers and immersed in the aqueous compound solution for one minute. Ticks are transferred to a filter paper in a petridish and incubated in a climate chamber.

Data set [12] concerns two-spotted spider mite (Tetranychus urticae). Nature of the data set: Tetranychus urticae spray test; OP-resistant (bean plants). The data set is classed as in vivo.
Data set [13] deals with cattle ticks (Boophilus microplus) strane Parhurst, SP-resistant. Nature of the data set: Boophilus microplus dip test (BOOPMI Dip). The data set is classed as in vivo. The settings on record: 100 ppm, egg deposition after 7 days.
From the text: Boophilus microplus—Diptest (BOOPMI Dip)
Test animal: cattle ticks (Boophilus microplus) strane Parhurst, SP-resistant
as §1
This compound solution is pipetted into tubes. 8-10 engorged, adult, female cattle ticks (Boophilus microplus) are placed in perforated tubes. These tubes are immersed in the aqueous compound solution until the ticks are completely moistened. After the liquid has drained off, the ticks are transferred to a filter paper in a plastic tray and stored in a climate chamber.
as §5

In data set [14] the test system is adult cat fleas (Ctenocephalides felis). Nature of the data set: Ctenocephalides felis in-vitro contact test, adult cat flea. It is filed as in vivo. The settings on record: 5 μg/cm^2 (=500 g/ha), after 48 hours. As for the experimental part: Ctenocephalides felis—In-Vitro Contact Tests Adult Cat Flea
9 mg compound is solved in 1 ml acetone and diluted with acetone to the desired concentration. 250 μl of the test solution is filled in 25 ml glass test tubes and homogeneously distributed on the inner walls by rotation and tilting on a shaking device (2 h at 30 rpm). With a compound concentration of 900 ppm, an inner surface of 44.7 cm^2 and a homogeneous distribution, a dose of 5 μg/cm^2 is achieved.
After the solvent has evaporated, each test tube is filled with 5-10 adult cat fleas (Ctenocephalides felis), closed with a perforated lid and incubated in a lying position at room temperature and relative humidity. After 48 hours efficacy is determined. The fleas are patted on the ground of the tubes and are incubated on a heating plate at 45-50° C. for at most 5 minutes. Immotile or uncoordinated moving fleas, which are not able to escape the heat by climbing upwards, are marked as dead or moribund.
An efficacy of 100% means all fleas are dead or moribund; 0% means no fleas are dead or moribund.

Data set [15] relates to green peach aphid (Myzus persicae). Nature of the data set: Myzus persicae spray test (pepper leaves). It is filed as in vivo. The settings on record: 20 ppm, after 6 days.

The structures appear in SMILES notation.

One may read the mortality as the percentage killed. What is called logP is a log measure of how a compound divides between an organic and an aqueous phase. By chromatographic logP is commonly meant lipophilicity estimated from chromatographic retention.

In the case of `CSc1c(C(F)(F)C(F)(F)F)nn(C)c1-n1cc(-c2ccc(Cl)c(C(=O)NC3(C#N)CC3)c2)cn1` [Example I-02, 2-chloro-N-(1-cyanocyclopropyl)-5-[2′-methyl-4′-(methylsulfanyl)-5′-(pentafluoroethyl)-2′H-1,3′-bipyrazol-4-yl]benzamide], the mortality at 100 ppm was 100% in [1]; 100% in data set [2]; 90% in [6] (Musca domestica, 48 h, read-out: mortality in %); 100% in [11]. Besides, the mortality at 100 g/ha amounted to 100% in data set [3] (Tetranychus urticae, foliar, 144 h, read-out: mortality in %); 100% in data set [4] (Spodoptera frugiperda, 168 h, read-out: mortality in %); 100% in data set [9]; 100% in data set [10]. Also, the mortality at 4 ppm in data set [5] came to 100%; in data set [12] (Tetranychus urticae, 168 h, read-out: mortality in %), 100%. The “efficacy (infertile eggs)” value in data set [7] and in data set [13] was 100% each time. This compound showed a logP in [8] of 3.56. For the same compound, in data set [8] (reversed-phase C18 HPLC column), the chromatographic logP amounted to 3.58.
As to `Cn1nc(C(F)(F)C(F)(F)F)c([S+](C)[O-])c1-n1cc(-c2ccc(Cl)c(C(=O)NC3CC3)c2)cn1` (stereo not shown) [Example I-06], the mortality in % in [3] (100 g/ha, after 6 days) turned out to be 90%; in data set [4] (100 g/ha, after 7 days), 100%; in data set [6] (100 ppm, after 2 days), 100%; in data set [15], 99%; in [12] (20 ppm, after 7 days) it was 90%. Further, in [7], the “efficacy (infertile eggs)” value is given as 100%. For the same compound, the log partition coefficient (logP) in data set [8] worked out at 2.60. In data set [14], the “efficacy (fleas dead or moribund)” value amounted to 100%.

Values taken from patent publication US9936699B2, “Halogen-substituted compounds” (BAYER CROPSCIENCE AKTIENGESELLSCHAFT, priority 2014, dated 2018).
